Source: patent US6353119B1, “Preparation of 3-substituted-4-arylquinolin-2-one derivatives” (Bristol-Myers Squibb Company, priority 1999, dated 2002)

What was measured:
[1] = system: ICP/BP responses elicited by stimulation of the cavernous nerve; test: In vivo erectile function model, intracavernous pressure response to cavernous nerve stimulation; parameters: species or system rat; details: 0.1-1 mg/kg i.v.; anesthetized rats
Text: The in vivo model on erectile function is described fully in the scientific literature (Rehman, J., Chenven, E., Brink, P. Peterson, B., Wolcott, B., Wen, Y. P., Melman, A., Christ, G.: Diminished neurogenic but not pharmacological erections in the 2- to 3-month experimentally diabetic F-344 rat. Am. J. Physiol. 272: H1960-H1971, 1997). Briefly, rats (250-600 g) were anesthetized using sodium pentobarbital, the abdomen opened and the cavernous nerve identified. A pressure catheter was placed in the right corpus cavernosum (crus) to measure intracavernous pressure (ICP). A second catheter was introduced into the carotid artery to measure blood pressure. Test compound (0.1, 0.3 and 1 mg/kg i.v.) or vehicle (PEG 400) was given via a catheter placed into the jugular vein.
Control intracavernous pressure responses were elicited by electrically stimulating the cavernous nerve via bipolar stimulating electrodes (20 Hz, 0.22 ms pulse width). Stimulus amplitude (0.2-20 mA) was adjusted to produce a submaximal intracavernous pressure response (typically 0.2 or 0.5 mA). A series of control intracavernous pressure responses were then obtained using a constant stimulus amplitude. Test compound or vehicle was then administered (200 μl i.v bolus) and the cavernous nerve was restimulated to evoke a cavernous pressure response at various times post-drug administration. […]

[2] = system: cloned mammalian (mSlo or hSlo) BK channels heterologously expressed in Xenopus oocytes; test: BK-mediated outward current in Xenopus oocytes, two-electrode voltage clamp; format: cell-based, Xenopus oocyte; details: at 20 μM; IBTX-sensitive current; at least 5 oocytes
Description: The ability of compounds described in the present invention to open BK channels and increase whole-cell outward (K^+) BK-mediated currents was assessed under voltage-clamp conditions by determining their ability to increase cloned mammalian (mSlo or hSlo) BK-mediated outward current heterologously expressed in Xenopus oocytes [Butler, A., et al., Science, 261: 221-224 (1993); and Dworetzky, S. I., et al., Mol. Brain Res., 27: 189-193 (1994)]. The two BK constructs employed represent nearly structurally identical homologous proteins, and have proven to be pharmacologically identical in our tests. To isolate BK current from native (background, non-BK) current, the specific and potent BK channel-blocking toxin iberiotoxin (IBTX) [Galvez, A., et al., J. Biol. Chem., 265: 11083-11090 (1990)] was employed at a supramaximal concentration (50 nM). The relative contribution of BK channels current to total outward current was determined by subtraction of the current remaining in the presence of IBTX (non-BK current) from the current profiles obtained in all other experimental conditions (control, drug, and wash). […] All compounds were tested in at least 5 oocytes and are reported at the single concentration of 20 μM; the effect of the selected compounds of Formula I on BK current was expressed as the percent of control IBTX-sensitive current and is listed in Table 1. […]

[3] = system: permanent MCAO focal stroke model; test: Permanent focal ischemia, middle cerebral artery occlusion (MCAO) model; format: in vivo, spontaneously hypertensive rat; details: 0.003 mg/kg i.v. single bolus 2 hours after MCAO; infarct measured 24 hours after MCAO; vs vehicle-treated control
Text: To determine the ability of these compounds to reduce cell loss resulting from neuronal ischemia, a standard rodent model of permanent focal ischemia, involving occlusion of the middle cerebral artery in the spontaneously hypertensive rat (middle cerebral artery occlusion (MCAO) model) was employed [Tamura, A., et al., Journal of Cerebral Blood Flow and Metabolism, Volume 1, 53-60, (1981)]. Selected compounds have been evaluated in the focal stroke model involving permanent MCAO in the spontaneously hypertensive rat. This procedure results in a reliably large neocortical infarct volume that is measured by means of vital dye exclusion in serial slices through the brain 24 hours after MCAO. In the present test, compounds were administered using an intravenous route of administration at 2 hours after occlusion.

SMILES	ICP/BP responses elicited by sub-maximal stimulation of the cavernous nerve [1]	BK Current, percent increase over BK current in controls [2]	melting point	reduction of cortical infarct volume [3]
O=c1[nH]c2ccc(C(F)(F)F)cc2c(-c2cc(Cl)ccc2O)c1CCO [Example 4, 4-(5-Chloro-2-hydroxyphenyl)-3-(2-hydroxyethyl)-6-(trifluoromethy)-2(1H)-quinolinone]	produced an augmentation of the ICP/BP responses	++ (++ = >200%)	–	–
COc1ccc(Cl)cc1-c1c(CCO)c(=O)[nH]c2ccc(C(F)(F)F)cc12 [Example 5, 4-(5-Chloro-2-methoxyphenyl)-3-(2-hydroxyethyl)-6-(trifluoromethyl)-2(1H)-quinolinone]	–	++ (++ = >200%)	216 to 217 °C	about 25%
